According to US6972319B1, “Pituitary adenylate cyclase activating peptide (PACAP)receptor 3 (R3) agonists and their pharmacological methods of use” (priority 1999, dated 2005):
Like-named read-outs stand apart in the source and are kept apart here. No end group written: not given here.

How the values were obtained:
[1] = target: T1, PACAP-R2 (Homo sapiens, UniProt P32241); assay: Cyclic AMP SPA on CHO cells transfected with PACAP-R2; format: cell-based; details: concentration at which 50% of maximum PACAP27 activity is achieved, NA = no detectable activities
T1 construct: expressed in transfected cells; host or cells: CHO cells
T1 sequence (P32241 31-457): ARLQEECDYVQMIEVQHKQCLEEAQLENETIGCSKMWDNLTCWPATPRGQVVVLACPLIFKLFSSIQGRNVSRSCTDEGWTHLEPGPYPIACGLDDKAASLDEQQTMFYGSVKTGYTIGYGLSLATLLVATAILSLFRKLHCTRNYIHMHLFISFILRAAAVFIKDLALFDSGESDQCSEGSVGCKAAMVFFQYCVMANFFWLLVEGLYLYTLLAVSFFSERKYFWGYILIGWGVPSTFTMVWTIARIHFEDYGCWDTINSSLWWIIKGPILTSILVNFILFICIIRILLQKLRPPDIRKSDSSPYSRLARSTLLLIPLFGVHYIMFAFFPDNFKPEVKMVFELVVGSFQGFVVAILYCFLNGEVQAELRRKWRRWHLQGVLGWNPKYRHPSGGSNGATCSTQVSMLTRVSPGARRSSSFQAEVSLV
Procedure, shortened: (§1)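 Potency reflects cyclic AMP accumulation, determined by SPA, after a 15 min, 37 C peptide exposure of CHO cells carrying the human receptor. Values are expressed relative to the maximal PACAP27 effect, with EC50 taken at its 50% level.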

[2] = Peptide-induced elevation of plasma insulin after IVGTT in rats; format: in vivo; details: one minute after IVGTT (0.4 g/kg glucose), Wistar rats
Experimental: Wistar rats are fasted overnight (17 hrs) and then anesthetized with pentobarbital (0.1 ml/100 g BW). Glucose (0.4 g/kg dissolved in 1% human albumin-saline)+/−peptide (dissolved in 1% human albumin-saline) is injected intravenously into the tail vein. The rats are eye-bled 1 minute after the injection and 50-100 ul of the plasma are assayed for insulin level with the Linco RIA kit (Linco Research, Inc., St. Charles, Mo.).
In accordance with the protocol of example 2 above, overnight fasted Wistar rats were anesthetized with pentobarital; i.v. injected with glucose±peptide and eye bled after 1 minute. N=12 rats/group. […] The peptide or vehicle was given i.v. followed by a glucose load given i.p. in accordance with example 3. The plasma glucose was followed over the time period indicated.
Plasma insulin: Data are expressed as % of plasma insulin one minute after IVGTT (0.4 g/kg glucose) with either saline, 0.1 nmol/kg P51, P55, P60, P66 or 1 nmole/kg of the other peptides in Wistar rats. Blood was drawn from the eye and insulin was measured with the rat insulin RIA kit (Linco Research, Inc., St. Charles, Mo.).

[3] = target: T2, PACAP-R3 (Homo sapiens, UniProt P41587); assay: Cyclic AMP SPA on CHO cells expressing PACAP R3; format: cell-based; set-up: expressed in transfected cells; host or cells: CHO cells (Geneticin selection); details: for R3 Selectivity: ratio of EC50 at R2 versus EC50 at R3
T2 sequence (P41587 24-438): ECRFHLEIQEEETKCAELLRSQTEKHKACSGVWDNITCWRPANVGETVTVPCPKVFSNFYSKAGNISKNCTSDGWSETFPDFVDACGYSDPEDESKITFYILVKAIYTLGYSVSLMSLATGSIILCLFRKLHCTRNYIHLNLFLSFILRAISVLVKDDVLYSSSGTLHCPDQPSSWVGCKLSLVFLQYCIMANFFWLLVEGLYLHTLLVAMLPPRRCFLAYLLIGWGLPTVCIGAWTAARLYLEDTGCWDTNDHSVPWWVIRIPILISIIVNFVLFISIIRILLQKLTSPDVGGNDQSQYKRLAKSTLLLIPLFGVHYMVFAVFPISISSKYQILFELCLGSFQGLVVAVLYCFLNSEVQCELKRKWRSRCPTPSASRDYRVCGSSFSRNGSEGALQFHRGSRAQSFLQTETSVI
Procedure, shortened: as §1

[4] = system: rat islets; assay: Insulin secretion by isolated rat islets; format: cell-based, Sprague-Dawley rats; details: for Islet Insulin Release (% of Basal): 10 nM peptide, 2 hrs, 8 mM glucose, % of [insulin] in 8 mM glucose alone
Experimental: Sprague Dawley rats (275-320 g) were used as the source of donor islets. Briefly, the pancreas was filled with 10 ml of cold reconstituted Liberase RI (Boehringer Manheim), harvested and incubated with additional 5 ml enzyme solution in water bath for 30 minutes. Tissue suspension was washed twice with cold 10% FBS/Hanks buffer (Gibco), resuspended in 8 ml 25% ficoll (Sigma) and then layered with 5 ml each of 23%, 20% and 11% ficoll. The islets in the 20% layer after centrifugation were removed, washed twice with cold 10% FBS/Hank buffer and resuspended in 10% FBS/RPMI 1640 media (Sigma).
Islet insulin release: Rat islets were isolated from Sprague-Dawley rats as described in example 1 and treated with either vehicle or specified peptide (10 nM) for 2 hrs. Insulin concentration in the medium was measured with the Linco rat insulin RIA kit. Glucose concentration in the medium was 8 mM. The data are expressed as % of [insulin] in 8 mM glucose alone.

[5] = Intraperitoneal glucose tolerance test (IPGTT), plasma glucose in rats; format: in vivo, Wistar rats; details: for elevation of plasma glucose 30 minutes after IPGTT: 1 nmole/kg s.c., rats, FIG. 7; for Plasma Glucose (% of Basal) s.c.: plasma glucose after IPGTT (1 g/kg glucose), 1 nmol/kg peptide s.c.; for Plasma Glucose (% of Basal) s.c. / Plasma Glucose (% of Basal) i.v.: % of vehicle; for Plasma Glucose (% of Basal) i.v.: plasma glucose area under the curve after IPGTT (1 g/kg glucose), 1 nmol/kg peptide i.v.
Experimental: Wistar rats are fasted overnight and then anesthetized with pentobarbital. The rats were eye-bled (zero time) and the peptide (in 1% human albumin) was injected into the tail vein. Five minutes later, 1 g/kg of glucose (in saline) was injected intraperitoneally, and the rats were eye-bled after 15, 30 and 60 minutes. Plasma glucose levels were determined using the Technicon Axon autoanalyzer, Bayer Diagnosics division of Bayer Corporation, Tarrytown N.Y., operated using Method No. SM4-2143F90“Glucose”.
Wistar rats were fasted overnight and then anesthetized with Pentobarbital. The rats were eye-bled (zero time) and the peptide (in 1% human albumin) was injected subcutaneously. Five minutes later, 1 g/kg of glucose (in saline) was injected intraperitoneally, and the rats were eye-bled after 30 minutes.
Plasma glucose: Data are expressed as % of vehicle of plasma glucose area under the curve after IPGTT (1 g/kg glucose) after treatment with 1 nmol/kg dose of the peptide. […] The present inventors have shown for the first time that this is because the effects of R2 and R3 on glucose tend to cancel each other out. […] Therefore, R3-selectivity appears to be a desirable attribute for medicaments which are to be employed in achieving blood glucose reduction, for treatment of type 2 diabetes.

[6] = cAMP SPA, CHO cells transfected with PACAP-R3, concentration at which 50% of maximum PACAP27 activity is achieved, NA = no detectable activities, read-out: R3 EC50

| Molecule | EC50 ([1]; cAMP SPA, read-out: R2 EC50) | Plasma Insulin (% of Basal) ([2]; 0.1 nmol/kg peptide i.v.) | EC50 [3, 6] | R3 Selectivity [3] | Plasma Insulin (% of Basal) ([2]; 1 nmole/kg peptide i.v.) | Islet Insulin Release (% of Basal) [4] | EC50 ([1]; R2 EC50, cAMP SPA) | elevation of plasma glucose 30 minutes after IPGTT [5] | disposal of blood glucose ([5]; peptide i.v. followed by glucose load i.p., FIG. 5) | Plasma Glucose (% of Basal) s.c. [5] | Plasma Glucose (% of Basal) i.v. [5] | release of insulin from isolated rat islets ([4]; 0.1-100 nM, 3 or 8 mM glucose, FIGS. 4A-4B) | EC50 [3] |
| --- | --- | --- | --- | --- | --- | --- | --- | --- | --- | --- | --- | --- | --- |
| HSDAVFTDNYTRLRKQVAAKKYLQSIKK [Peptide R3P60] | 120 nM | 283% | 1 nM | 120 | – | – | – | – | – | – | – | – | – |
| HSDAVFTDNYTRLRKQVAAKKYLQSIKKKR [Peptide R3P77] | 200 nM | – | 0.4 nM | 500 | 388% | – | – | – | – | – | – | – | – |
| HSDAVFTDNYTRLRKQMAVKKYLNSIKKGGT [Peptide R3P9] | 40 nM | – | 2 nM | 20 | – | 221% | – | – | – | – | – | – | – |
| H-HSDAVFTDNYTRLRKQMAAKKYLNSIKNKRY [Peptide R3P55] | 50 nM | 208% | 0.17 nM | 280 | – | – | – | – | – | – | – | – | – |
| HSDAVFTENYTKLRKQLAAKKYLNDLKKGGT [Peptide R3P3] | – | – | – | 130 | 361% | 275% | 100 nM | significantly reduced | markedly accelerated the disposal of blood glucose | 72% | 77% | significantly enhances the release of insulin | 0.75 nM |
| HSDAVFTDNYTRLRKQLAAKKYLNDIKK-NH2 [Peptide R3P13] | 163 nM | – | 5 nM | 33 | – | – | – | significantly reduced | – | – | – | – | – |
| HSDAVFTDNYTRLRKQVAVKKYLQSIKKK [Peptide R3P81] | 50 nM | – | 0.5 nM | 100 | 302% | – | – | – | – | – | – | – | – |
| HSDAVFTENYTKLRKQLAAKKYLNDLLNGGT [Peptide R3P10] | 3 nM | – | 11 nM | 0.3 | – | 174% | – | – | – | – | – | – | – |
| CC[C@H](C)[C@H](NC(=O)[C@H](CO)NC(=O)[C@H](CCC(N)=O)NC(=O)[C@H](CC(C)C)NC(=O)[C@H](Cc1ccc(O)cc1)NC(=O)[C@H](CCCCN)NC(=O)[C@H](CCCCN)NC(=O)[C@@H](NC(=O)[C@H](C)NC(=O)[C@@H](NC(=O)[C@H](CCC(N)=O)NC(=O)[C@H](CCCCN)NC(=O)[C@H](CCCNC(=N)N)NC(=O)[C@H](CC(C)C)NC(=O)[C@H](CCCNC(=N)N)NC(=O)[C@@H](NC(=O)[C@H](Cc1ccc(O)cc1)NC(=O)[C@H](CC(N)=O)NC(=O)[C@H](CC(=O)O)NC(=O)[C@@H](NC(=O)[C@H](Cc1ccccc1)NC(=O)[C@@H](NC(=O)[C@H](C)NC(=O)[C@H](CC(=O)O)NC(=O)[C@H](CO)NC(=O)[C@@H](N)Cc1c[nH]cn1)C(C)C)[C@@H](C)O)[C@@H](C)O)C(C)C)C(C)C)C(=O)N[C@@H](CCCCN)C(=O)N[C@@H](CCCCN)C(=O)N[C@@H](CCCCN)C(=O)N[C@@H](CCCNC(=N)N)C(=O)O [Peptide R3P80] | – | – | 0.44 nM | – | 360% | – | – | – | – | – | – | – | – |
| PACAP 27: 27-amino acid form of pituitary adenylate cyclase activating peptide with an amidated carboxyl terminus [reference compound] | – | – | – | – | 320% | 186% | – | – | – | – | – | – | – |
| HSDAVFTDNYTRLRKQLAAKKYLNDIKKKRY [Peptide R3P36] | > 90 nM | – | 0.4 nM | >200 | 255% | – | – | – | – | 78% | 73% | – | – |
| HSDAVFTDNYTRLRKQLAAKKYLNDIKKGGT [Peptide R3P12] | > 100 nM | – | 0.5 nM | >200 | 302% | 324% | – | significantly reduced | – | 76% | – | – | – |
| HSDAVFTDNYTRLRKQVAAKKYLQSIKNKRY [Peptide R3P66] | 100 nM | 388% | 0.4 nM | 250 | – | 184% | – | – | – | 82% | – | – | – |
| HSDAVFTDNYTRLRKQMAAKKYLNSIKK [Peptide R3P51] | 23 nM | 259% | 0.26 nM | 90 | – | – | – | – | – | – | – | – | – |
